Key:
Hepatitis B Virus = assay: HBV secretion by chronically HBV secreting HepG2.2.15 cells (preS1 immunoprecipitation of secreted virions, PCR of viral DNA); assay type: cell-based; conditions: 3 days, control = 100%
Method: The anti-hepatitis B virus activity and effect on cell viability of a number of different N-substituted-1,5-dideoxy-1,5-imino-D-glucitol compounds were assessed using an in vitro assay employing chronically hepatitis B virus secreting HepG2.2.15 cells. The method employed was essentially that described in Block et al. (1994) Proc. Natl. Acad. Sci. USA 91:2235-2239.

HepG2.2.15 cells = assay type: cell-based
[1] = system: HepG 2.2.15 (2.2.15) cells; assay: IC-90 values taken as basis for the combostat serial dilutions; assay type: cell-based; conditions: Hepatitis B virus, HepG2.2.15; T. Block and G. Jacob, unpublished observation
Method: The anti-hepatitis B virus effect of […] (3TC) alone and in combination with N-nonyl-DNJ was determined according to Korba ((1996) Antiviral Research 29(1):49-51), using the "combostat" strategy (Comstat Program, Combostat Corp., Duluth, MN). The combostat method involves serially diluting the IC-90 of each compound. The IC-90 of N-nonyl-DNJ has been determined to be between 4 and 10 µg/ml (T. Block and G. Jacob, unpublished observation). The accepted IC-90 for 3TC in HepG 2.2.15 (2.2.15) cells is 300nM to 500nM (Doong et al. (1991) Proc. Natl. Acad. Sci. USA 88:8495-8499).

[2] = system: woodchuck hepatitis virus (WHV); assay: Woodchuck model: total HBV DNA by quantitative PCR; assay type: in vivo; conditions: 0, 12.5, 25, 50, 100 mg/kg/day BID oral, 4 weeks
Method: (§1) Therefore, five groups of four animals each (all groups had both sexes, all but the control had two of each sex) were assigned to 0, 12.5, 25, 50, and 100 mg/kg/day with BID oral dosing. These were lab-reared wild animals. All animals were infected with woodchuck hepatitis virus (WHV) as neonates, and had been tested positive on serological tests for WHV surface antigen. Blood samples were drawn one week prior to dosing (-1 week), immediately before dosing (0 weeks), weekly during dosing (1, 2, 3, and 4 weeks), and after the end of dosing (5, 6, 8, and 10 weeks).
(§2) There are two measures of drug efficacy: reduction in total HBV DNA (measured by quantitative PCR), and reduction in HBV DNA from capsids with intact surface glycoproteins, which is the active form of the virus (measured by an ELISA-like immune precipitation assay followed by quantitative PCR).
The total HBV DNA levels were essentially constant over time within each animal (data not shown). There was a faint hint of a dose-response relationship with decreasing levels of virus with increasing levels of drug, except that three animals at the highest dose had very high virus levels. It is not possible to conclude that there is any relationship between dose of N-nonyl-DNJ and total HBV DNA. […]

[3] = system: woodchuck hepatitis virus (WHV); assay: Woodchuck model: immune precipitated HBV DNA (IPDNA), immune precipitation followed by quantitative PCR; assay type: in vivo
Method: as §1, §2
Substantial variation existed in the IPDNA assay, both between assay runs and within assay runs (data not shown). Even so, it was possible to observe and model a slope over weeks 0-4 which is generally increasing for low dose animals and decreasing for high dose animals.
Before models are fitted to the data, a log transform was applied because: 1) the variation in IPDNA increases with increasing IPDNA values; the log transformation gives values with a nearly constant variation, and 2) it is expected that drug effects will appear as a constant multiplier of the IPDNA level. Because there are zero values of IPDNA, a small value (about 1/2 of the smallest non-zero value) was added to all values before the log transform.
Two approaches were used to model the changes in slope to week with dose of N-nonyl-DNJ: a linear modeling approach and a nonlinear model. Both approaches assume that the (linear) rate of change of the Log(IPDNA) measure over the dosing period is the "right" measure to reflect the effect of the drug on the virus. Both approaches are fit in stages, and the first stage is common to both approaches. First, a simple straight line regression model is fit using weeks 0-4 to predict log(IPDNA + 10) separately for each animal by run combination. In the second stage, the response variable is the slope fitted in the first stage.
For the linear approach, a model is fit with slope to week as the response where run is considered a block, dose has a significant effect (almost all of this effect is due to a slope to dose), and the relevant error for testing the effect of dose is the variation among animals treated alike (after the adjustment for the runs as blocks). This is similar to using the calibration data within each run to first adjust each run's data to a common virus DNA concentration; the difference is that here the data from the woodchucks are used for the run adjustment rather than only the calibration data.
For the nonlinear approach, a four parameter logistic model is fit with the slope to week as the response and the dose as the predictor. Again, run is considered a block, but because no run has all weeks, it is not possible to fully reflect the blocking in the nonlinear approach. […] The average maximum slope observed was 2.71 additional Log(IPDNA µg/mL)/week, or an increase of about […], the average minimum slope observed with N-nonyl-DNJ is 0.31 fewer Log (IPDNA µg/mL)/week), or about a decrease of about […]. The slopes, the fitted model, the parameter estimates from the model, and the approximate standard errors for these parameters are all shown in Figure 3. […] Whether in woodchucks or humans, the effective dose of both the N-alkyl-DNJ and nucleoside or nucleotide antiviral agent administered in combination therewith can be administered in two equal daily subdoses (i.e., B.I.D.).

[4] = concentration [200] (unit not given)
[5] = concentration [1000] (unit not given)

Compound | Relative amount of HBV secreted, as a % of control (Hepatitis B Virus; [4]) | Relative amount of HBV secreted, as a % of control (Hepatitis B Virus; [5]) | appearance of cells by gross microscopic examination (HepG2.2.15 cells) | IC90 [1] | effect on total HBV DNA measurements [2] | EC50 ([3]; four parameter logistic model, slope of Log(IPDNA + 10) to week vs dose) | average maximum slope observed ([3]; weeks 0-4 of dosing) | average minimum slope observed ([3]; weeks 0-4 of dosing) | decrease of IPDNA at average minimum slope ([3]; weeks 0-4 of dosing) | increase of IPDNA at average maximum slope ([3]; weeks 0-4 of dosing) | approximate effective monotherapy dose ([3]; woodchucks, oral)
CCC(CC)CN1C[C@H](O)[C@@H](O)[C@H](O)[C@H]1CO [Compound 3, N-(2-ethylbutyl)-1,5-dideoxy-1,5-imino-D-glucitol] | 5.0 +/-30 (n = 3) % | 5.0 +/-20(n = 3) % | unremarkable (healthy) |  |  |  |  |  |  |  | 
CCCCCCCCCN1C[C@H](O)[C@@H](O)[C@H](O)[C@H]1CO [Compound 1, N-(n-nonyl)-1,5-dideoxy-1,5-imino-D-glucitol] |  |  |  | 4 to 10 µg/mL | no effect | 7.88 mg/kg/BID dose | 2.71 additional Log(IPDNA µg/mL)/week | 0.31 fewer Log (IPDNA µg/mL)/week | about 25 %/week | about 150 %/week | about 16 mg/kg/day
CCCCN1C[C@H](O)[C@@H](O)[C@H](O)[C@H]1CO [NBDNJ, N-(n-butyl-)-1,5-dideoxy-1,5-imino-D-glucitol, reference compound] | 37.0 +/-13(n = 15) % | 3.2 +/-5(n = 15) % |  |  |  |  |  |  |  |  | 

From patent publication EP1714676A2, “Use of N-substituted-1,5-dideoxy-1,5-imino-D-glucitol compounds for treating hepatitis virus infections” (G.D. Searle LLC., priority 1999, dated 1999)
